Laboratory results reported in article PMC5689459 (European journal of medicinal chemistry, 2010).
Read-outs that look alike come from different tables or passages of the source. Where a SMILES comes first, the peptide text is derived from it. [ ]: non-standard residue; d: D form. d(β3hP) = O=C(O)C[C@H]1CCCN1; β3hP = O=C(O)C[C@@H]1CCCN1

Columns and labels:
μ-opioid receptor [1] = target: T1, μ-opioid receptor (Homo sapiens, UniProt P35372); test: Radioligand competition binding, displacement of [3H]DAMGO; conditions: for Selectivity Kiδ/Kiμ: ratio of δ and μ binding Ki
κ-opioid receptor = κ-opioid receptor (Homo sapiens, UniProt P41145); test: Radioligand competition binding, displacement of [3H]U69,593
δ-opioid receptor [2] = target: T2, δ-opioid receptor (Homo sapiens, UniProt P41143); test: Radioligand competition binding, displacement of [3H]DPDPE
δ-opioid receptors (MVD) = δ-opioid receptors (MVD) (Mus musculus, UniProt P32300); test: MVD in vitro tissue bioassay; type: biochemical
μ-opioid receptors (GPI) = test: GPI/LMMP in vitro tissue bioassay; type: biochemical, guinea pig; conditions: read-out: Bioassay GPI (IC50); ± S.E.M.
δ-opioid receptor [3] = target: T2, δ-opioid receptor; conditions: read-out: Receptor affinity Kiδ; cited from earlier work
μ-opioid receptor [4] = target: T1, μ-opioid receptor; conditions: ratio of δ and μ binding Ki; cited from earlier work

| Molecule | Ki (μ-opioid receptor [1]) | Ki (κ-opioid receptor) | Ki (δ-opioid receptor [2]) | Selectivity Kiδ/Kiμ (μ-opioid receptor [1]) | Bioassay MVD, % at 1 μM (δ-opioid receptors (MVD)) | IC50 (μ-opioid receptors (GPI)) | Ki (δ-opioid receptor [3]) | Selectivity Kiδ/Kiμ (μ-opioid receptor [4]) |
| --- | --- | --- | --- | --- | --- | --- | --- | --- |
| NC(=O)[C@H](Cc1ccccc1)NC(=O)[C@H](Cc1ccccc1)NC(=O)C[C@@H]1CCCN1C(=O)[C@@H](N)Cc1ccc(O)cc1 [Compound 6a, H–Tyr–(S)-HPro–Phe–Phe–NH2] | 0.058 ± 0.005 µM | 0.99 ± 0.012 µM | – | – | – | – | – | – |
| NC(=O)[C@H](Cc1ccccc1)NC(=O)[C@H](Cc1ccccc1)NC(=O)C[C@H]1CCCN1C(=O)[C@@H](N)Cc1ccc(O)cc1 [Compound 6b, H–Tyr–(R)-HPro–Phe–Phe–NH2] | 0.293 ± 0.027 µM | 10 ± 1.2 µM | > 10 µM | > 34 | – | – | – | – |
| NC(=O)[C@H](Cc1ccccc1)NC(=O)[C@H](Cc1ccccc1)NS(=O)(=O)C[C@@H]1CCCN1C(=O)[C@@H](N)Cc1ccc(O)cc1 [Compound 6c, H–Tyr–(S)-HPrs–Phe–Phe–NH2] | 0.1 ± 0.008 µM | 4.8 ± 0.367 µM | – | – | – | – | – | – |
| NC(=O)[C@@H]1CCCN1C(=O)[C@H](Cc1ccccc1)NC(=O)C[C@@H]1CCCN1C(=O)[C@@H](N)Cc1ccc(O)cc1 [Compound 7a, H–Tyr–(S)-HPro–Phe–Pro–NH2] (H-Y[β3hP]FP-NH2) | 6.1 ± 0.553 µM | 4.4 ± 0.356 µM | > 10 µM | – | 33.7% at 1 μM | 1.1 ± 0.115 µM | – | – |
| NC(=O)[C@@H]1CCCN1C(=O)[C@H](Cc1ccccc1)NC(=O)C[C@H]1CCCN1C(=O)[C@@H](N)Cc1ccc(O)cc1 [Compound 7b, H–Tyr–(R)-HPro–Phe–Pro–NH2] (H-Y[d(β3hP)]FP-NH2) | 0.03 ± 0.004 µM | 10 ± 0.982 µM | > 10 µM | > 333 | – | 0.017 ± 0.003 µM | – | – |
| Tyr–Pro–Phe–Pro–NH2 (YPFP) [Morphyceptin] | – | – | – | – | – | – | > 10 µM | – |
| Tyr–Pro–Phe–Pro–NH2 [Morphyceptin] | – | – | – | – | – | – | – | > 74.1 |
